Series [1] has as its system TPA-induced increase in ear thickness. The series is described as follows: Topical TPA-induced irritant contact dermatitis model in mice. Format: in vivo, Balb/c mice. The following applies: mouse ear, 6 hours after TPA. As to the method: The objective of this assay is to assess the anti-inflammatory effect in a model of acute dermatitis of test compounds being studied for cutaneous inflammatory conditions such as atopic dermatitis (Dong et al., J Pharmacol Exp Ther, 2013, 344, 436-446).
Topical dermal application of phorbol ester 12-O-tetradecanoylphorbol-13-acetate (TPA) in mice causes an inflammatory response that is characterized by edema and neutrophil influx at the early phase (2-24 h) and by epidermal cell proliferation at the later phase (24-48 h) (Griffiths et al., Agents and Actions, 1988, 25, 344-351). Female Balb/c mice were topically administered with either vehicle (1:7 DMSO:acetone) or 20 μL of a solution of TPA (2.5 μg) in vehicle on each ear. At 30 min before and 15 min after TPA administration, either vehicle or the compound of Example 2 at doses of 30, 100, 300, 1000, and 3000 μg in vehicle was applied topically to each ear. The degree of inflammation was assessed as the change in ear thickness at 6 hours after TPA application.

The next series has as its target JAK1 (Homo sapiens (Human), UniProt P23458). Description: LanthaScreen JAK biochemical assay, JAK1. As for the experimental part: (§1) A panel of four LanthaScreen JAK biochemical assays (JAK1, 2, 3 and Tyk2) were carried in a common kinase reaction buffer (50 mM HEPES, pH 7.5, 0.01% Brij-35, 10 mM MgCl2, and 1 mM EGTA). Recombinant GST-tagged JAK enzymes and a GFP-tagged STAT1 peptide substrate were obtained from Life Technologies.

Series [2] can be described thus: Colon pharmacokinetics in rats. Conditions: Sprague Dawley, rat, colon and plasma, po, 5 mg/kg.
Protocol: The test compound was formulated in 0.5% methyl-cellulose in water and dosed via oral gavage at 3.2 mg/kg and 100 mg/kg to Sprague Dawley rats. At various time points (typically 0.5, 1, 3, 6, 24 hr) post dosing, blood samples were removed via cardiac puncture and intact colons were excised from the rats. Blood samples were centrifuged at 1500×g for 15 min to collect plasma. Colons were washed with ice cold phosphate buffered saline (PBS), weighed, and homogenized at a dilution of 1:10 in PBS. Plasma and colon levels of test compound were determined by LC-MS analysis against analytical standards constructed into a standard curve in the test matrix. A colon to plasma ratio was determined as the ratio of the colon AUC to the plasma AUC in μg hr/g.
The target in a further series is Tyk2 (Homo sapiens (Human), UniProt P29597). The series is described as follows: LanthaScreen JAK biochemical assay, Tyk2. As to the method:
as §1
In general terms: In TR-FRET formats the signal depends on donor and acceptor labels being close together.

The subject of series [3] is IFNγ stimulated STAT1 phosphorylation in CD14+ monocytes. Description: Cellular JAK potency assay: inhibition of IFNγ-induced pSTAT1. It counts as cell-based. Conditions: Homo sapiens, Monocyte. As to the method:
The potency of test compounds for inhibition of interferon gamma (IFNγ) stimulated STAT1 phosphorylation was measured in CD14-positive (CD14+) monocytes derived from human whole blood (Stanford Blood Center) using flow cytometry. Because IFNγ signals through JAK, this assay provides a measure of JAK cellular potency.
Monocytes were identified using a fluorescein isothiocyanate (FITC) conjugated anti-CD14 antibody (Clone RM052, Beckman Coulter), and an Alexa Fluor 647 conjugated anti-pSTAT1 antibody (pY701, Clone 4a, BD Biosciences) was used to detect STAT1 phosphorylation.
Human peripheral blood mononuclear cells (PBMC) were isolated from human whole blood of healthy donors using a ficoll gradient. […] Cells were washed twice with FACS buffer, and then resuspended in 1:10 anti-pSTAT1 Alexa Fluor 647:FACS buffer (100 μL) for 30 min at RT in the dark, washed twice in FACS buffer, and analyzed using a LSRII flow cytometer (BD Biosciences).
To determine the inhibitory potency of test compounds, the median fluorescent intensity (MFI) of pSTAT1 was measured in CD14+ monocytes. IC50 values were determined from analysis of the inhibition curves of MFI vs compound concentration. Data are expressed as pIC50 (negative decadic logarithm IC50) values (mean±standard deviation).

The next series addresses JAK2 (Homo sapiens (Human), UniProt O60674). The series is described as follows: LanthaScreen JAK biochemical assay, JAK2. As for the experimental part: as §1

pIC50, pKi: −log10 of the molar value. “Also recorded” adds a separate entry of the source. Like-named read-outs stand apart in the source and are kept apart here.

JAK2, sequence (O60674 whole entry): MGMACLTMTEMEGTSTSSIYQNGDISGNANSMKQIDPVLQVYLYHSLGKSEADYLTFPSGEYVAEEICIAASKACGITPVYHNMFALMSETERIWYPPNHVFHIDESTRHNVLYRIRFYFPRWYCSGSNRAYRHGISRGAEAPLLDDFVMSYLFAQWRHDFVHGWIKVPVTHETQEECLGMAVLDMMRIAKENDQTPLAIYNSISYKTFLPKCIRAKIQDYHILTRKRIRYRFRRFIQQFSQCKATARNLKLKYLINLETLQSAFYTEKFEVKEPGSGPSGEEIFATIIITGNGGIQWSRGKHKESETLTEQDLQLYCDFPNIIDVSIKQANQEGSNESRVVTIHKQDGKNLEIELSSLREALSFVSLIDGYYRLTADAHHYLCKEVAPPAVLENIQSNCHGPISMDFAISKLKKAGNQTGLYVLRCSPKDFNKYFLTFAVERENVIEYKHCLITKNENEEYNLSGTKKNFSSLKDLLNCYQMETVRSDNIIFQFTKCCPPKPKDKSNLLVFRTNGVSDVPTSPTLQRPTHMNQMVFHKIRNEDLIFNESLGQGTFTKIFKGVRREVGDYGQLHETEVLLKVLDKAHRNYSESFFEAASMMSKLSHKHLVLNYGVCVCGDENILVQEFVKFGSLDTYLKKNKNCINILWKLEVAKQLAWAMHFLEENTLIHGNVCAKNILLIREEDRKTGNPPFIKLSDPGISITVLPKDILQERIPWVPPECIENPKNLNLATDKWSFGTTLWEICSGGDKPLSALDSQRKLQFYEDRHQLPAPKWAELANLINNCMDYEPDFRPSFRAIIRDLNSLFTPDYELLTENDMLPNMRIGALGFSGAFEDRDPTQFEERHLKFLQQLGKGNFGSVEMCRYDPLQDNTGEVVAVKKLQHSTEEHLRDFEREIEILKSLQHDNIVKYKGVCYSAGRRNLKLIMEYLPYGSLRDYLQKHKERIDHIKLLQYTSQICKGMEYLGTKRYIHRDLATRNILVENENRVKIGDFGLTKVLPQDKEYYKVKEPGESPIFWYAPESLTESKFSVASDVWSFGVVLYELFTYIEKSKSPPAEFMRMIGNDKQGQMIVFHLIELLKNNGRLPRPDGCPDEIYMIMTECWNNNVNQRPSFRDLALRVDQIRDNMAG
JAK1, sequence (P23458 whole entry): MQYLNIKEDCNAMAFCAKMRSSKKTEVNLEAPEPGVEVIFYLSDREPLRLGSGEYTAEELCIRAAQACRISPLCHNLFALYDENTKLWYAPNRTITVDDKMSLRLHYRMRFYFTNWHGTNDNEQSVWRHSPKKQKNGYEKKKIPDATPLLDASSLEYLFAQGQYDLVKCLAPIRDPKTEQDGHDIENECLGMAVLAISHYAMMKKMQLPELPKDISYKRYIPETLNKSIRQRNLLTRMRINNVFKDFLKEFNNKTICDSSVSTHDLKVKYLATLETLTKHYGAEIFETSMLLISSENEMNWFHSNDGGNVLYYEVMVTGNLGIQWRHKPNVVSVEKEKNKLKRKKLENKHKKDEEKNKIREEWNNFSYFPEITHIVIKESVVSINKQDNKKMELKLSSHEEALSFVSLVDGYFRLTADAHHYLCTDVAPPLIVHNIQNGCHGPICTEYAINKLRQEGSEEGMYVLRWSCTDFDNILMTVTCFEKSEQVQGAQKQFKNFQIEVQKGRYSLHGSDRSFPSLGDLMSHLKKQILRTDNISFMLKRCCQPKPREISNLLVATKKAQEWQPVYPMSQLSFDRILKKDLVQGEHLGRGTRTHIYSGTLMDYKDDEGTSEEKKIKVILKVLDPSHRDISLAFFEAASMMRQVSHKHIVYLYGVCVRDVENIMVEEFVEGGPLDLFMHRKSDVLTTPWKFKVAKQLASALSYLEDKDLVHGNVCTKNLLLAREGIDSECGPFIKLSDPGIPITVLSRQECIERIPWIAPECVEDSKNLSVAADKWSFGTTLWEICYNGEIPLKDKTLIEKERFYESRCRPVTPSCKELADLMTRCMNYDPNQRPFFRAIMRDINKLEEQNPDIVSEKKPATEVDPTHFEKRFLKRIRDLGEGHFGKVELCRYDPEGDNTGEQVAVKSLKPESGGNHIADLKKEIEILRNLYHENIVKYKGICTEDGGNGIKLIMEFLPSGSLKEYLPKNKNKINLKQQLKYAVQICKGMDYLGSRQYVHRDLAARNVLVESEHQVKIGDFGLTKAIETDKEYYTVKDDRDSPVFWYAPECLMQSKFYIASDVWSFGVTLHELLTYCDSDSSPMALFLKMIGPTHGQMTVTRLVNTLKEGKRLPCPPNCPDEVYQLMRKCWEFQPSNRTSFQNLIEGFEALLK
Tyk2, sequence (P29597 whole entry): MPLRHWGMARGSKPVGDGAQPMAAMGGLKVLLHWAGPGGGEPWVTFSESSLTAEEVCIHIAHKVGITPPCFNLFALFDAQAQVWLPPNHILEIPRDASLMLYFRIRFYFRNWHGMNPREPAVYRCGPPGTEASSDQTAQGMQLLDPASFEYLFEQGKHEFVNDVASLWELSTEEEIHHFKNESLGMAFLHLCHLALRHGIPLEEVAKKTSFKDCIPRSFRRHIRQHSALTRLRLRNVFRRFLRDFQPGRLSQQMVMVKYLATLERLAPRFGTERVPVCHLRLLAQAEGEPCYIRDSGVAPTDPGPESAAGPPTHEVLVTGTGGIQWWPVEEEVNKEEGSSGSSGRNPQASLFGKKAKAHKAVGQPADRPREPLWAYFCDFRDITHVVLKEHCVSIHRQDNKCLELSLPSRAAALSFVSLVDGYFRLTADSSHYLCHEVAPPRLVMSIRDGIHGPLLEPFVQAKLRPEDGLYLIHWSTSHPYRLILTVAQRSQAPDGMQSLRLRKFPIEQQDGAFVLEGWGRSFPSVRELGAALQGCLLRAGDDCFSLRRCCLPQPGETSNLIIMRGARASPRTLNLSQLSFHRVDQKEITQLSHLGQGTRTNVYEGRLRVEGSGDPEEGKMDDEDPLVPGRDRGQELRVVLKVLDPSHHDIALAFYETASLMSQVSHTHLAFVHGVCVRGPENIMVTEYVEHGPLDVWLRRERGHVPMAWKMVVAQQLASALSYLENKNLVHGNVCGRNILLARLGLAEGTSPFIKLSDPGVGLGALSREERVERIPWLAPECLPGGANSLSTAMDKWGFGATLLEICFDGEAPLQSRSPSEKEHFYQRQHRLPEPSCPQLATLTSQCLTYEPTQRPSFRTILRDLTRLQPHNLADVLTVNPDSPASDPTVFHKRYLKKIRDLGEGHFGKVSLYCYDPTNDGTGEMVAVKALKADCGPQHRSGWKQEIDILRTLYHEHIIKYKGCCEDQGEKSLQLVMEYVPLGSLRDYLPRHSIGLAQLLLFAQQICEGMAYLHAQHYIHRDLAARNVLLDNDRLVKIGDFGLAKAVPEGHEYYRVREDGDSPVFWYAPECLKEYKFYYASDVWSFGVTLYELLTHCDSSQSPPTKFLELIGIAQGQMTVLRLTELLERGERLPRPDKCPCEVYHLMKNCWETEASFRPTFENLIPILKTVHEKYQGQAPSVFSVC

As to `COc1cc(Nc2cc(CO)[nH]n2)nc(N(C)[C@@H]2C[C@H]3CCC[C@@H](C2)N3S(=O)(=O)N2CC(C#N)C2)n1` [Example 2, 1-(((1R,3s,5S)-3-((4-((5-(Hydroxymethyl)-1H-pyrazol-3-yl)amino)-6-methoxypyrimidin-2-yl)(methyl)amino)-9-azabicyclo[3.3.1]nonan-9-yl)sulfonyl)azetidine-3-carbonitrile], the “inhibition of TPA-induced increase in ear thickness (in words)” value in series [1] (topical 30-3000 μg) is “dose- and concentration-dependent effect; also recorded: dose- and concentration-dependent inhibition”. Further, the “maximum statistically significant inhibition of TPA-induced increase in ear thickness” value in series [1] (topical, 1000 μg dose) stood at 41%. Further, the “JAK 1 (pKi)” value on JAK1 is “A (A represents a pKi value≥10 (Ki≤0.1 nM))”. Further, the Kp (commonly the ratio of the level in a tissue or fluid to that in plasma or blood) in series [2] is more than 250. The pKi (usually −log10 of the Ki, conventionally taken in molar units) at Tyk2 was 9.00 to 10.00. Besides, in series [3] (IFNγ-induced pSTAT1, CD14+ monocytes, read-out: pIC50 value (converted)), the IC50 is approximately 25.1 nM. Moreover, the pIC50 – broadly, the IC50 on a negative log10 scale, so that one unit is a factor of ten – in series [3] (cellular assay, Assay 5, read-out: IC50 for inhibition of IFNγ) is not below 7.30. Besides, on JAK2, the “JAK 2 (pKi)” value is on record as “A (A represents a pKi value≥10 (Ki≤0.1 nM))”.

The values are drawn from US10028960B2, “Pyrimidine compounds as JAK kinase inhibitors” (THERAVANCE BIOPHARMA R&D IP, LLC, priority 2016, dated 2018).
